# Reference: patent US20220175850A1, “COMPOSITIONS AND METHODS FOR CANCER THERAPY” (priority 2019, published 2022)
# Experiments:
# [1] = test system: HCC827GR cells; assay: Marker protein expression in Iressa-resistant HCC827GR lung cancer cells; type: cell-based, human
# Description: The HCC827GR cell line is a lung cancer cell line that is resistant to Iressa.
# [2] = test system: triple negative breast cancer cells; assay: Tumor marker expression in animal model of triple negative breast cancer, supplement with or without chemotherapeutic drugs; type: in vivo, mice; conditions: primary tumor; supplement at low, mid, high dose with Taxol or Adriamycin; drugs alone
# [3] = test system: triple negative breast cancer cells; assay: as above; type: in vivo, mice
# Protocol: […] Animals were also treated with taxol, taxol and the supplement in combination, adriamycin, adriamycin and the supplement in combination, avastin, and avastin and the supplement in combination.
# FIG. 9A depicts a typical study design for animal model studies of this phenomena. Three different supplement formulations were used that provided low (NFS), mid (NFM-containing 1.5 times the Se content of NFS), and high (NFH, containing twice the Se content of NFS) doses of selenium and fish oil. These supplement formulations were provided in combination with a chemotherapeutic drug (such as Taxol or Adriamycin).
# As noted above, nutritional supplements can be provided that include different amounts of selenium (Se), and can also be provided with or used in combination with a chemotherapeutic agent.
# CD24 and CD29 are markers that are commonly used to determine degree of stem cell character. […] Mice were also treated with taxol, taxol and the supplement in combination, adriamycin, adriamycin and the supplement in combination, avastin, and avastin and the nutritional supplement in combination. […] As in FIG. 9, nutritional supplements containing low, mid, and high amounts of selenium were provided in combination with either avastin or taxol.
# [4] = test system: A549 human lung cancer sphere cells; assay: Marker protein expression in stem-cell like A549 sphere cells; type: cell-based
# Description: FIG. 7B depicts an exemplary Western blot of PD-L1 expression in stem-cell like sphere cells derived from A549 human lung cancer cells.
# [5] = metastatic brain tumor site, different amounts of supplement in combination with Taxol, taxol alone
# [6] = tumor, supplement at low, mid, high doses in combination with taxol or avastin, drug alone
molecule,measurement,setting,value
COc1cc2ncnc(Nc3ccc(F)c(Cl)c3)c2cc1OCCCN1CCOCC1 [Iressa],Axl expression,"[1]; 24 hours of treatment, in either the absence or presence of Iressa",not reduced
same,Axl expression,[1]; 72 hours,no apparent effect
same,HSP90 expression,[1]; 72 hours,no apparent effect
same,PD-L1 expression,[1]; chemotherapy resistant cancer cells,has no effect
COc1cccc2c1C(=O)c1c(O)c3c(c(O)c1C2=O)C[C@@](O)(C(=O)CO)C[C@@H]3O[C@H]1C[C@H](N)[C@H](O)[C@H](C)O1 [adriamycin],PD-1 expression,[2],increased slightly
same,PD-L1 expression,[2],no apparent effect
CC(=O)O[C@H]1C(=O)[C@@]2(C)[C@H]([C@H](OC(=O)c3ccccc3)[C@]3(O)C[C@H](OC(=O)[C@H](O)[C@@H](NC(=O)c4ccccc4)c4ccccc4)C(C)=C1C3(C)C)[C@]1(OC(C)=O)CO[C@@H]1C[C@@H]2O [taxol],CD24 expression,[3]; [5],no apparent effect
same,CD29 expression,[3]; [5],no apparent effect
same,MMP-9 expression,[3]; [5],no apparent effect
same,VEGF expression,[3]; [5],no apparent effect
same,EGFR expression,"[3]; tumor tissue, supplement with different amounts of selenium co-treated with taxol or avastin, drug alone",not impacted
same,PTEN expression,[3]; [6],increase induced by taxol
same,p-PTEN expression,[3]; [6],decrease induced by either taxol or avastin
same,p-STAT3 expression,[3]; [6],decrease induced by either taxol or avastin
same,PD-1 expression,[2],increased slightly
same,PD-L1 expression,[2],no apparent effect
avastin: chemotherapeutic agent used in the animal tumor model,CXCR4 expression,"[3]; tumor tissue, avastin alone or cotherapy with supplement at low, mid, high doses",little effect
same,p-PTEN expression,[3]; [6],decrease induced by either taxol or avastin
same,p-STAT3 expression,[3]; [6],decrease induced by either taxol or avastin
selenium,p-HSP27 expression,[4],not found
same,vimentin expression,[4],not seen
